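Test compounds were applied to cells in 96-well plates for 48 hours at 5 doses. GI50: concentration for 50% inhibition of growth. At the TGI there is no net growth.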
Tests used:
Experiment in all cases: NCI anticancer screen, dose series, 48 h
[1] = tested on: M14 melanoma
[2] = tested on: BT-549 breast
[3] = tested on: SK-MEL-28 melanoma
[4] = tested on: UACC-257 melanoma
[5] = tested on: SF-295 CNS
[6] = tested on: NCI/ADR-RES ovarian
[7] = tested on: 786-0 renal
[8] = tested on: COLO 205 colon
[9] = tested on: HS 578T breast
[10] = tested on: U251 CNS
[11] = tested on: OVCAR-5 ovarian
[12] = tested on: CAKI-1 renal
[13] = tested on: NCI-H522 lung
[14] = tested on: A549 NSCLC
[15] = tested on: K-562 leukemia
[16] = tested on: A498 renal
[17] = tested on: OVCAR-3 ovarian
[18] = tested on: UO-31 renal
[19] = tested on: ACHN renal
[20] = tested on: TK-10 renal
[21] = tested on: RPMI-8226 leukemia
[22] = tested on: HOP-62 NSCLC
[23] = tested on: MCF7 breast
[24] = tested on: EKVX NSCLC
[25] = tested on: HOP-92 NSCLC
[26] = tested on: SNB-19 CNS
[27] = tested on: NCI-H226 lung
[28] = tested on: CCRF-CEM leukemia
[29] = tested on: HL-60(TB) leukemia
[30] = tested on: SF-539 CNS
[31] = tested on: IGROV1 ovarian
[32] = tested on: MDA-MB-231 breast
[33] = tested on: SN12C renal
[34] = tested on: LOX IMVI melanoma
[35] = tested on: RXF 393 renal
[36] = tested on: SF-268 CNS
[37] = tested on: HCC-2998 colon
[38] = tested on: NCI-H460 lung
[39] = tested on: OVCAR-8 ovarian
[40] = tested on: SK-MEL-5 melanoma
[41] = tested on: UACC-62 melanoma
[42] = tested on: MDA-MB-435
[43] = tested on: MALME-3M melanoma
[44] = tested on: SK-MEL-2 melanoma
[45] = tested on: SW-620 colon
[46] = tested on: NCI-H23 lung
[47] = tested on: DU-145 prostate
[48] = tested on: HCT-116 colon
[49] = tested on: SK-OV-3 ovarian
[50] = tested on: HT29 colon
[51] = tested on: PC-3 prostate
[52] = tested on: HCT-15 colon
[53] = tested on: KM12 colon
[54] = tested on: T-47D breast
[55] = tested on: SNB-75 CNS
[56] = tested on: MOLT-4 leukemia
[57] = tested on: OVCAR-4 ovarian

CCOC(=O)c1cc2c(c3ccsc13)C1(C)CCC3c4ccc(OC)cc4CCC3C1C2 (centres undefined)
GI50 [1]: > 100 µM
TGI [1]: > 100 µM
GI50 [2]: > 100 µM
TGI [2]: > 100 µM
GI50 [3]: > 100 µM
TGI [3]: > 100 µM
GI50 [4]: > 100 µM
TGI [4]: > 100 µM
GI50 [5]: > 100 µM
TGI [5]: > 100 µM
GI50 [6]: > 100 µM
TGI [6]: > 100 µM
GI50 [7]: > 100 µM
TGI [7]: > 100 µM
GI50 [8]: > 100 µM
TGI [8]: > 100 µM
GI50 [9]: > 100 µM
TGI [9]: > 100 µM
GI50 [10]: > 100 µM
TGI [10]: > 100 µM
GI50 [11]: > 100 µM
TGI [11]: > 100 µM
GI50 [12]: > 100 µM
TGI [12]: > 100 µM
GI50 [13]: > 100 µM
TGI [13]: > 100 µM
GI50 [14]: > 100 µM
TGI [14]: > 100 µM
GI50 [15]: > 100 µM
TGI [15]: > 100 µM
GI50 [16]: > 100 µM
TGI [16]: > 100 µM
GI50 [17]: > 100 µM
TGI [17]: > 100 µM
GI50 [18]: > 100 µM
TGI [18]: > 100 µM
GI50 [19]: > 100 µM
TGI [19]: > 100 µM
GI50 [20]: > 100 µM
TGI [20]: > 100 µM
GI50 [21]: > 100 µM
TGI [21]: > 100 µM
GI50 [22]: > 100 µM
TGI [22]: > 100 µM
GI50 [23]: > 100 µM
TGI [23]: > 100 µM
GI50 [24]: > 100 µM
TGI [24]: > 100 µM
GI50 [25]: > 100 µM
TGI [25]: > 100 µM
GI50 [26]: > 100 µM
TGI [26]: > 100 µM
GI50 [27]: > 100 µM
TGI [27]: > 100 µM
GI50 [28]: > 100 µM
TGI [28]: > 100 µM
GI50 [29]: > 100 µM
TGI [29]: > 100 µM
GI50 [30]: > 100 µM
TGI [30]: > 100 µM
GI50 [31]: > 100 µM
TGI [31]: > 100 µM
GI50 [32]: > 100 µM
TGI [32]: > 100 µM
GI50 [33]: > 100 µM
TGI [33]: > 100 µM
GI50 [34]: > 100 µM
TGI [34]: > 100 µM
GI50 [35]: > 100 µM
TGI [35]: > 100 µM
GI50 [36]: > 100 µM
TGI [36]: > 100 µM
GI50 [37]: > 100 µM
TGI [37]: > 100 µM
GI50 [38]: > 100 µM
TGI [38]: > 100 µM
GI50 [39]: > 100 µM
TGI [39]: > 100 µM
GI50 [40]: > 100 µM
TGI [40]: > 100 µM
GI50 [41]: > 100 µM
TGI [41]: > 100 µM
GI50 [42]: > 100 µM
TGI [42]: > 100 µM
GI50 [43]: > 100 µM
TGI [43]: > 100 µM
GI50 [44]: > 100 µM
TGI [44]: > 100 µM
GI50 [45]: > 100 µM
TGI [45]: > 100 µM
GI50 [46]: > 100 µM
TGI [46]: > 100 µM
GI50 [47]: > 100 µM
TGI [47]: > 100 µM
GI50 [48]: > 100 µM
TGI [48]: > 100 µM
GI50 [49]: 36 µM
TGI [49]: > 100 µM
GI50 [50]: 60.3 µM
TGI [50]: > 100 µM
GI50 [51]: > 100 µM
TGI [51]: > 100 µM
GI50 [52]: > 100 µM
TGI [52]: > 100 µM
GI50 [53]: > 100 µM
TGI [53]: > 100 µM
GI50 [54]: > 100 µM
TGI [54]: > 100 µM

C[C@@H]1CCC[C@]2(C)O[C@H]2CC[C@@](C)(O)[C@@H]2CC3=C(CO)C(=O)O[C@H]3[C@H]1O2
TGI [1]: > 50 µM
TGI [2]: > 50 µM
TGI [3]: > 50 µM
TGI [4]: > 50 µM
TGI [5]: > 50 µM
TGI [6]: > 50 µM
TGI [7]: > 50 µM
TGI [8]: > 50 µM
TGI [9]: > 50 µM
TGI [10]: > 50 µM
TGI [11]: > 50 µM
TGI [12]: > 50 µM
TGI [55]: > 50 µM
TGI [13]: > 50 µM
TGI [14]: > 50 µM
TGI [15]: > 50 µM
TGI [16]: > 50 µM
TGI [17]: > 50 µM
TGI [18]: > 50 µM
TGI [19]: > 50 µM
TGI [20]: > 50 µM
TGI [21]: > 50 µM
TGI [22]: > 50 µM
TGI [23]: > 50 µM
TGI [24]: > 50 µM
TGI [25]: > 50 µM
TGI [26]: > 50 µM
TGI [27]: > 50 µM
TGI [28]: > 50 µM
TGI [29]: > 5 µM
TGI [30]: > 50 µM
TGI [31]: > 50 µM
TGI [32]: > 50 µM
TGI [33]: > 50 µM
TGI [34]: > 50 µM
TGI [35]: > 50 µM
TGI [36]: > 50 µM
TGI [37]: > 50 µM
TGI [38]: > 50 µM
TGI [39]: > 50 µM
TGI [40]: > 50 µM
TGI [41]: > 50 µM
TGI [42]: > 50 µM
TGI [56]: > 50 µM
TGI [44]: > 50 µM
TGI [45]: > 50 µM
TGI [46]: > 50 µM
TGI [47]: > 50 µM
TGI [57]: > 50 µM
TGI [48]: > 50 µM
TGI [49]: > 50 µM
TGI [50]: > 50 µM
TGI [51]: > 50 µM
TGI [52]: > 50 µM
TGI [53]: > 50 µM
TGI [54]: > 50 µM

Reference: PubChem BioAssay (NCI)
